Test results taken from US8192962B2, “Processes for detecting toxic substances” (Daikin Industries, Ltd., priority 2001, dated 2012).

System: Stress protein genes
Assay: DNA chip mRNA expression in yeast, stress protein genes (Table 6)
Format: cell-based, Saccharomyces cerevisiae S288C
Procedure, shortened: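 S. cerevisiae S288C grown at 25° C. in YPD to log phase, then exposed 2 h to a toxicant at a growth-inhibiting, non-lethal concentration; untreated cells as control. Poly(A) mRNA reverse-transcribed with Cy3-dUTP or Cy5-dUTP, hybridized >12 h at 65° C. to whole-genome yeast DNA chip; value = fluorescence ratio treated/untreated.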

## [Cl][Hg][Cl] [(3), HgCl2]
Yeast gene YAL005C
  The level of expressed mRNA in the presence of chemical substance/The level of expressed mRNA in the absence of chemical substance: 7.0
Yeast gene YAL015C
  The level of expressed mRNA in the presence of chemical substance/The level of expressed mRNA in the absence of chemical substance: 1.7
Yeast gene YBL075C
  The level of expressed mRNA in the presence of chemical substance/The level of expressed mRNA in the absence of chemical substance: 3.1
Yeast gene YBL093C
  The level of expressed mRNA in the presence of chemical substance/The level of expressed mRNA in the absence of chemical substance: 0.4
Yeast gene YBR044C
  The level of expressed mRNA in the presence of chemical substance/The level of expressed mRNA in the absence of chemical substance: 0.7
Yeast gene YBR054W
  The level of expressed mRNA in the presence of chemical substance/The level of expressed mRNA in the absence of chemical substance: 5.4
Yeast gene YBR067C
  The level of expressed mRNA in the presence of chemical substance/The level of expressed mRNA in the absence of chemical substance: 2.8
Yeast gene YBR072W
  The level of expressed mRNA in the presence of chemical substance/The level of expressed mRNA in the absence of chemical substance: 18.4
Yeast gene YBR126C
  The level of expressed mRNA in the presence of chemical substance/The level of expressed mRNA in the absence of chemical substance: 5.6
Yeast gene YBR169C
  The level of expressed mRNA in the presence of chemical substance/The level of expressed mRNA in the absence of chemical substance: 3.9
Yeast gene YCL035C
  The level of expressed mRNA in the presence of chemical substance/The level of expressed mRNA in the absence of chemical substance: 1.5
Yeast gene YCR021C
  The level of expressed mRNA in the presence of chemical substance/The level of expressed mRNA in the absence of chemical substance: 4.2
Yeast gene YCR060W
  The level of expressed mRNA in the presence of chemical substance/The level of expressed mRNA in the absence of chemical substance: 0.9
Yeast gene YCR083W
  The level of expressed mRNA in the presence of chemical substance/The level of expressed mRNA in the absence of chemical substance: 1.5
Yeast gene YDL022W
  The level of expressed mRNA in the presence of chemical substance/The level of expressed mRNA in the absence of chemical substance: 6.9
Yeast gene YDL025C
  The level of expressed mRNA in the presence of chemical substance/The level of expressed mRNA in the absence of chemical substance: 3.5
Yeast gene YDR033W
  The level of expressed mRNA in the presence of chemical substance/The level of expressed mRNA in the absence of chemical substance: 4.6
Yeast gene YDR077W
  The level of expressed mRNA in the presence of chemical substance/The level of expressed mRNA in the absence of chemical substance: 3.5
Yeast gene YDR098C
  The level of expressed mRNA in the presence of chemical substance/The level of expressed mRNA in the absence of chemical substance: 1.0
Yeast gene YDR155C
  The level of expressed mRNA in the presence of chemical substance/The level of expressed mRNA in the absence of chemical substance: 3.2
Yeast gene YDR258C
  The level of expressed mRNA in the presence of chemical substance/The level of expressed mRNA in the absence of chemical substance: 2.8
Yeast gene YDR293C
  The level of expressed mRNA in the presence of chemical substance/The level of expressed mRNA in the absence of chemical substance: 1.2
Yeast gene YDR436W
  The level of expressed mRNA in the presence of chemical substance/The level of expressed mRNA in the absence of chemical substance: 1.1
Yeast gene YDR513W
  The level of expressed mRNA in the presence of chemical substance/The level of expressed mRNA in the absence of chemical substance: 2.3
Yeast gene YDR519W
  The level of expressed mRNA in the presence of chemical substance/The level of expressed mRNA in the absence of chemical substance: 1.7
Yeast gene YEL030W
  The level of expressed mRNA in the presence of chemical substance/The level of expressed mRNA in the absence of chemical substance: 1.9
Yeast gene YEL039C
  The level of expressed mRNA in the presence of chemical substance/The level of expressed mRNA in the absence of chemical substance: 1.3
Yeast gene YER042W
  The level of expressed mRNA in the presence of chemical substance/The level of expressed mRNA in the absence of chemical substance: 3.1
Yeast gene YER057C
  The level of expressed mRNA in the presence of chemical substance/The level of expressed mRNA in the absence of chemical substance: 3.0
Yeast gene YER103W
  The level of expressed mRNA in the presence of chemical substance/The level of expressed mRNA in the absence of chemical substance: 5.2
Yeast gene YER125W
  The level of expressed mRNA in the presence of chemical substance/The level of expressed mRNA in the absence of chemical substance: 1.5
Yeast gene YFL014W
  The level of expressed mRNA in the presence of chemical substance/The level of expressed mRNA in the absence of chemical substance: 5.7
Yeast gene YFL016C
  The level of expressed mRNA in the presence of chemical substance/The level of expressed mRNA in the absence of chemical substance: 1.6
Yeast gene YFL020C
  The level of expressed mRNA in the presence of chemical substance/The level of expressed mRNA in the absence of chemical substance: 1.9
Yeast gene YFR052W
  The level of expressed mRNA in the presence of chemical substance/The level of expressed mRNA in the absence of chemical substance: 1.3
Yeast gene YGL073W
  The level of expressed mRNA in the presence of chemical substance/The level of expressed mRNA in the absence of chemical substance: 0.9
Yeast gene YGL115W
  The level of expressed mRNA in the presence of chemical substance/The level of expressed mRNA in the absence of chemical substance: 1.2
Yeast gene YGL181W
  The level of expressed mRNA in the presence of chemical substance/The level of expressed mRNA in the absence of chemical substance: 1.2
Yeast gene YGR088W
  The level of expressed mRNA in the presence of chemical substance/The level of expressed mRNA in the absence of chemical substance: 7.7
Yeast gene YHL028W
  The level of expressed mRNA in the presence of chemical substance/The level of expressed mRNA in the absence of chemical substance: 1.4
Yeast gene YHL046C
  The level of expressed mRNA in the presence of chemical substance/The level of expressed mRNA in the absence of chemical substance: 2.1
Yeast gene YHR030C
  The level of expressed mRNA in the presence of chemical substance/The level of expressed mRNA in the absence of chemical substance: 0.6
Yeast gene YHR057C
  The level of expressed mRNA in the presence of chemical substance/The level of expressed mRNA in the absence of chemical substance: 0.7
Yeast gene YHR104W
  The level of expressed mRNA in the presence of chemical substance/The level of expressed mRNA in the absence of chemical substance: 15.7
Yeast gene YIL011W
  The level of expressed mRNA in the presence of chemical substance/The level of expressed mRNA in the absence of chemical substance: 3.9
Yeast gene YIL033C
  The level of expressed mRNA in the presence of chemical substance/The level of expressed mRNA in the absence of chemical substance: 3.3
Yeast gene YIR037W
  The level of expressed mRNA in the presence of chemical substance/The level of expressed mRNA in the absence of chemical substance: 2.0
Yeast gene YIR038C
  The level of expressed mRNA in the presence of chemical substance/The level of expressed mRNA in the absence of chemical substance: 4.6
Yeast gene YJL128C
  The level of expressed mRNA in the presence of chemical substance/The level of expressed mRNA in the absence of chemical substance: 0.4
Yeast gene YJL158C
  The level of expressed mRNA in the presence of chemical substance/The level of expressed mRNA in the absence of chemical substance: 2.8
Yeast gene YJL159W
  The level of expressed mRNA in the presence of chemical substance/The level of expressed mRNA in the absence of chemical substance: 2.8
Yeast gene YJL165C
  The level of expressed mRNA in the presence of chemical substance/The level of expressed mRNA in the absence of chemical substance: 1.3
Yeast gene YJR045C
  The level of expressed mRNA in the presence of chemical substance/The level of expressed mRNA in the absence of chemical substance: 3.9
Yeast gene YJR090C
  The level of expressed mRNA in the presence of chemical substance/The level of expressed mRNA in the absence of chemical substance: 0.6
Yeast gene YKL161C
  The level of expressed mRNA in the presence of chemical substance/The level of expressed mRNA in the absence of chemical substance: 0.9
Yeast gene YKL163W
  The level of expressed mRNA in the presence of chemical substance/The level of expressed mRNA in the absence of chemical substance: 3.4
Yeast gene YKL164C
  The level of expressed mRNA in the presence of chemical substance/The level of expressed mRNA in the absence of chemical substance: 2.5
Yeast gene YKL210W
  The level of expressed mRNA in the presence of chemical substance/The level of expressed mRNA in the absence of chemical substance: 2.7
Yeast gene YKR053C
  The level of expressed mRNA in the presence of chemical substance/The level of expressed mRNA in the absence of chemical substance: 1.0
Yeast gene YLL024C
  The level of expressed mRNA in the presence of chemical substance/The level of expressed mRNA in the absence of chemical substance: 5.3
Yeast gene YLL026W
  The level of expressed mRNA in the presence of chemical substance/The level of expressed mRNA in the absence of chemical substance: 7.7
Yeast gene YLL039C
  The level of expressed mRNA in the presence of chemical substance/The level of expressed mRNA in the absence of chemical substance: 1.7
Yeast gene YLL060C
  The level of expressed mRNA in the presence of chemical substance/The level of expressed mRNA in the absence of chemical substance: 2.3
Yeast gene YLR006C
  The level of expressed mRNA in the presence of chemical substance/The level of expressed mRNA in the absence of chemical substance: 0.9
Yeast gene YLR109W
  The level of expressed mRNA in the presence of chemical substance/The level of expressed mRNA in the absence of chemical substance: 6.0
Yeast gene YLR259C
  The level of expressed mRNA in the presence of chemical substance/The level of expressed mRNA in the absence of chemical substance: 3.1
Yeast gene YML007W
  The level of expressed mRNA in the presence of chemical substance/The level of expressed mRNA in the absence of chemical substance: 0.9
Yeast gene YML070W
  The level of expressed mRNA in the presence of chemical substance/The level of expressed mRNA in the absence of chemical substance: 2.5
Yeast gene YMR021C
  The level of expressed mRNA in the presence of chemical substance/The level of expressed mRNA in the absence of chemical substance: 0.9
Yeast gene YMR173W
  The level of expressed mRNA in the presence of chemical substance/The level of expressed mRNA in the absence of chemical substance: 3.0
Yeast gene YMR186W
  The level of expressed mRNA in the presence of chemical substance/The level of expressed mRNA in the absence of chemical substance: 2.0
Yeast gene YNL064C
  The level of expressed mRNA in the presence of chemical substance/The level of expressed mRNA in the absence of chemical substance: 1.8
Yeast gene YNL160W
  The level of expressed mRNA in the presence of chemical substance/The level of expressed mRNA in the absence of chemical substance: 10.6
Yeast gene YNL241C
  The level of expressed mRNA in the presence of chemical substance/The level of expressed mRNA in the absence of chemical substance: 4.3
Yeast gene YNR076W
  The level of expressed mRNA in the presence of chemical substance/The level of expressed mRNA in the absence of chemical substance: 2.5
Yeast gene YOL064C
  The level of expressed mRNA in the presence of chemical substance/The level of expressed mRNA in the absence of chemical substance: 1.1
Yeast gene YOL161C
  The level of expressed mRNA in the presence of chemical substance/The level of expressed mRNA in the absence of chemical substance: 2.4
Yeast gene YOR008C
  The level of expressed mRNA in the presence of chemical substance/The level of expressed mRNA in the absence of chemical substance: 1.4
Yeast gene YOR009W
  The level of expressed mRNA in the presence of chemical substance/The level of expressed mRNA in the absence of chemical substance: 3.2
Yeast gene YOR010C
  The level of expressed mRNA in the presence of chemical substance/The level of expressed mRNA in the absence of chemical substance: 3.2
Yeast gene YOR027W
  The level of expressed mRNA in the presence of chemical substance/The level of expressed mRNA in the absence of chemical substance: 4.4
Yeast gene YOR208W
  The level of expressed mRNA in the presence of chemical substance/The level of expressed mRNA in the absence of chemical substance: 1.2
Yeast gene YPL059W
  The level of expressed mRNA in the presence of chemical substance/The level of expressed mRNA in the absence of chemical substance: 2.6
Yeast gene YPL106C
  The level of expressed mRNA in the presence of chemical substance/The level of expressed mRNA in the absence of chemical substance: 2.4
Yeast gene YPL140C
  The level of expressed mRNA in the presence of chemical substance/The level of expressed mRNA in the absence of chemical substance: 0.9
Yeast gene YPL194W
  The level of expressed mRNA in the presence of chemical substance/The level of expressed mRNA in the absence of chemical substance: 0.4
Yeast gene YPL223C
  The level of expressed mRNA in the presence of chemical substance/The level of expressed mRNA in the absence of chemical substance: 1.2
Yeast gene YPL240C
  The level of expressed mRNA in the presence of chemical substance/The level of expressed mRNA in the absence of chemical substance: 2.4
Yeast gene YPR005C
  The level of expressed mRNA in the presence of chemical substance/The level of expressed mRNA in the absence of chemical substance: 1.5
Yeast gene YPR026W
  The level of expressed mRNA in the presence of chemical substance/The level of expressed mRNA in the absence of chemical substance: 5.0
